{"source": "patent US20230091966A1", "about": "“METHODS FOR THE TREATMENT OF CARDIOVASCULAR DISEASE WITH CYCLODEXTRINS” (Beren Therapeutics, P.B.C., priority 2020, published 2023)", "key": {"[1]": {"details": "human subject, single-ascending IV doses 500-1,000 mg/kg every 4 weeks; plasma pre-dose vs post-dose; FIG. 3A", "experimental": "A human subject was treated with 2-hydroxypropyl-beta-cyclodextrin with single-ascending doses administered intravenously every 4 weeks according to Table 1 below. For each dose, whole blood was collected pre-dose, post-dose (line flush), 1 hour post-dose, and 24 hours post-dose. Plasma was separated from the whole blood and subjected to a cholesterol crystal dissolution capacity (CCDC) assay using techniques similar to those described in the literature. The CCDC assay measures the ability of a sample to dissolve cholesterol crystals."}, "[2]": {"details": "pre-dose blood plasma incubated ex vivo with the substance; FIG. 3B", "experimental": "For each dose, whole blood was collected pre-dose, post-dose (line flush), 1 hour post-dose, and 24 hours post-dose. Plasma was separated from the whole blood and subjected to a cholesterol crystal dissolution capacity (CCDC) assay using techniques similar to those described in the literature. The CCDC assay measures the ability of a sample to dissolve cholesterol crystals. Blood plasma pre-dose was also incubated ex vivo with 2-hydroxypropyl-beta-cyclodextrin and the ability of the plasma to dissolve cholesterol crystals was measured."}, "[3]": {"system": "24S-hydroxycholesterol and 27-hydroxycholesterol", "details": "human subject, IV 500-1,000 mg/kg every 4 weeks; FIGS. 4A-4C", "experimental": "A human subject was treated with 2-hydroxypropyl-beta-cyclodextrin with single-ascending doses administered intravenously every 4 weeks according to Table 1 below.\nIn this Example, a human subject was treated with 2-hydroxypropyl-beta-cyclodextrin as in Example 2, and plasma levels of 24S-hydroxycholesterol and 27-hydroxycholesterol were measured."}, "ABCA1": {"system": "ABCA1", "details": "human subject, IV 500-1,000 mg/kg every 4 weeks; FIGS. 5A-5D", "experimental": "(§1) A human subject was treated with 2-hydroxypropyl-beta-cyclodextrin with single-ascending doses administered intravenously every 4 weeks according to Table 1 below. In this Example, a human subject was treated with 2-hydroxypropyl-beta-cyclodextrin as in Example 2, and ABCA1 and ABCG1 mRNA levels were measured. […] ABCA1 and ABCG1 are major cellular transporters resulting in cholesterol efflux to […] or mature HDL particles. In cardiovascular disease, expression of ABC transporters correlates with plaque stability and morbidity."}, "ABCG1": {"system": "ABCG1", "details": "human subject, IV 500-1,000 mg/kg every 4 weeks; FIGS. 5A-5D", "experimental": "as §1"}}, "data": [{"substance": "2-hydroxypropyl-beta-cyclodextrin", "values": [{"measurement": "capability of blood plasma to dissolve cholesterol crystals (CCDC)", "setting": "[1]", "value": "increased capability of blood plasma to dissolve cholesterol crystals"}, {"measurement": "capacity of plasma to dissolve cholesterol crystals (CCDC)", "setting": "[2]", "value": "increased capacity to dissolve cholesterol crystals"}, {"measurement": "plasma level of 24S-hydroxycholesterol", "setting": "[3]", "value": "increased plasma levels"}, {"measurement": "plasma level of 27-hydroxycholesterol", "setting": "[3]", "value": "increased plasma levels"}, {"measurement": "total cholesterol levels", "setting": "[3]", "value": "remained stable"}, {"measurement": "ABCA1 mRNA levels", "setting": "ABCA1", "value": "increased mRNA levels"}, {"measurement": "ABCG1 mRNA levels", "setting": "ABCG1", "value": "increased mRNA levels"}]}]}
